This passage reports Ki results from ChEMBL document CHEMBL1138618, “NMDA receptor affinities of 1,2-diphenylethylamine and 1-(1,2-diphenylethyl)piperidine enantiomers and of related compounds” (Bioorg Med Chem, 2009).

Structures are written as SMILES.

The subject of one test is Glutamate NMDA receptor. Description: Displacement of [3H]MK801 from NMDA receptor in rat brain neuronal membrane. In kind it is cell membranes.
Settings: not given; call rule not given here
On the technique in general: In a radioligand displacement assay an active substance lowers the binding of a labelled ligand.
As usually defined, the Ki is a measure of affinity in units of concentration, obtained from inhibition or displacement. Take `COc1ccc2c(c1)C13CCCC[C@@H]1C(C2)NCC3` (single isomer, unassigned): the Ki entry was “Not Active”.

The same test, now with this note: read-out: Ki.
In the case of `N[C@@H](c1ccccc1)[C@H](O)c1ccccc1`, the Ki came to 142 µM.
On to `N[C@@H](c1ccccc1)[C@@H](N)c1ccccc1`, for which the Ki amounted to 51 µM.
On the same count and under the same terms, next, `c1ccc(C[C@H](c2ccccc2)N2CCCCC2)cc1`: 5.25 µM; `COc1ccc2c(c1)[C@]13CCCC[C@@H]1[C@H](C2)NCC3`: 1.7 µM; `N[C@H](Cc1ccccn1)c1ccccc1`: 84 µM.
The same measure, in the same setting: to `NC(c1ccccc1)c1ccccc1` [AMINODIPHENYLMETHANE] belongs 64 µM; to `C[C@](N)(Cc1ccccc1)c1ccccc1`, 0.79 µM.
The same measure, in the same setting: to `N[C@H](c1ccccc1)[C@H](N)c1ccccc1` belongs 4.12 µM; to `N[C@]1(c2ccccc2Cl)CCCCC1=O`, 4.18 µM; to `N[C@H](Cc1ccccc1)c1ccccc1`, 25.1 µM.
Take `N[C@@]1(c2ccccc2Cl)CCCCC1=O`: the Ki turned out to be 55 µM.
The same measure, in the same setting: next, `C[C@H](N)Cc1ccccc1` [DEXTROAMPHETAMINE]: 300 µM; `NCc1ccccc1` [BENZYLAMINE]: 1060 µM.
The same measure, in the same setting: to `c1ccc(C2(N3CCCCC3)CCCCC2)cc1` [PHENCYCLIDINE] belongs 0.27 µM; to `NCC(c1ccccc1)c1ccccc1`, 145 µM.
Turning to `NCCc1ccccc1` [PHENETHYLAMINE], the Ki came to 753 µM.
Turning to `COC(=O)[C@H](N)c1ccccc1`, the Ki came out at 1370 µM.
As to `N[C@H](c1ccccc1)[C@@H](O)c1ccccc1`, the Ki was 15.7 µM.
Still for that read-out and setting: next, `c1ccc(C[C@@H](c2ccccc2)N2CCCCC2)cc1`: 0.12 µM; `N[C@@H](CC1CCCCC1)C1CCCCC1`: 271 µM.
Still for that read-out and setting: next, `C[C@@](N)(Cc1ccccc1)c1ccccc1`: 8.08 µM; `C[C@@H](N)c1ccccc1`: 659 µM; `C[C@@H](N)Cc1ccccc1` [LEVAMFETAMINE]: 625 µM.
Still for that read-out and setting: to `C[C@H](N)c1ccccc1` belongs 622 µM.
For the compound `CN[C@@]1(c2ccccc2Cl)CCCCC1=O`, the Ki came out at 5.68 µM.
As for `N[C@@H](Cc1ccccn1)c1ccccc1` [LANICEMINE], the Ki is 14 µM.
Turning to `N[C@@H](Cc1ccccc1)c1ccccc1`, the Ki came out at 0.7 µM.
On the same count and under the same terms, next, `COC(=O)[C@@H](N)c1ccccc1`: 1980 µM; `N[C@@H]1C[C@H]1c1ccccc1.N[C@H]1C[C@@H]1c1ccccc1` [TRANYLCYPROMINE]: 544 µM; `N[C@H](CC1CCCCC1)C1CCCCC1`: 138 µM.
In the case of `CN[C@]1(c2ccccc2Cl)CCCCC1=O` [ESKETAMINE], the Ki came out at 0.96 µM.
Take `N[C@H]1C[C@@H]1c1ccccc1` [(+)-TRANYLCYPROMINE]: the Ki stood at 269 µM.
